Test results taken from ChEMBL document CHEMBL1909046, “DrugMatrix in vitro pharmacology data”.

What was measured:
[1] = biological target: 5-hydroxytryptamine receptor 4 (Cavia porcellus, UniProt O70528); assay type: cell membranes, Dunkin-Hartley, Striatum, Membrane; further: in other assays of this panel Not Active means under 50% inhibition at 10 µM
[2] = biological target: Vascular endothelial growth factor receptor 1 (Homo sapiens, UniProt P17948); experiment: biochemical; assay type: cell-based, HUVEC; conditions: huvec; further: in other assays of this panel Not Active means under 50% inhibition at 10 µM
[3] = biological target: T1, Polyunsaturated fatty acid lipoxygenase ALOX15 (Oryctolagus cuniculus, UniProt P12530); experiment: biochemical; assay type: tissue-based, Reticulocytes; conditions: reticulocytes;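 further: inhibition of 15-lipoxygenase enzyme activity measured with linoleic acid as the substrate; in other assays of this panel Not Active means under 50% inhibition at 10 µM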
T1 sequence (P12530 whole entry): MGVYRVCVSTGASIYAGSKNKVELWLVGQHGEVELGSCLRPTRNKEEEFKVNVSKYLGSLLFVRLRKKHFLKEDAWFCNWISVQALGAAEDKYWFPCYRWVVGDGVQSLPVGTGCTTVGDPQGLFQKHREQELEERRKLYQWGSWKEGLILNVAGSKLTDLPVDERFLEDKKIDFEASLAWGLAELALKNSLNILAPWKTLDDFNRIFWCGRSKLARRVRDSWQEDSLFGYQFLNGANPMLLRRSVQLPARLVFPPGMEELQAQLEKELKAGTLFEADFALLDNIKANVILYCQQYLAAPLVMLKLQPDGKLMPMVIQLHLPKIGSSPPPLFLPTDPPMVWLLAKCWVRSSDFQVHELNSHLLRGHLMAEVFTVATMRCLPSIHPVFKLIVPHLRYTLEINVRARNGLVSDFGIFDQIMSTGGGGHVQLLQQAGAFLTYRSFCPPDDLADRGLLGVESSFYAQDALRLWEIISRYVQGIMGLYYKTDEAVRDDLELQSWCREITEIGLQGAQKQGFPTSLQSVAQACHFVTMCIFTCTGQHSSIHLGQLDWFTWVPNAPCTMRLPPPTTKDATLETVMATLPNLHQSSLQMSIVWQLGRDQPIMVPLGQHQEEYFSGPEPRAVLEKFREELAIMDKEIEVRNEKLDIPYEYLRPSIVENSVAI

[4] = biological target: T2, Nitric oxide synthase, inducible (Mus musculus, UniProt P29477); design: species or system Escherichia coli;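 further: inhibition of iNOS enzyme activity measured with L-arginine as substrate; in other assays of this panel Not Active means under 50% inhibition at 10 µM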
T2 sequence (P29477 whole entry): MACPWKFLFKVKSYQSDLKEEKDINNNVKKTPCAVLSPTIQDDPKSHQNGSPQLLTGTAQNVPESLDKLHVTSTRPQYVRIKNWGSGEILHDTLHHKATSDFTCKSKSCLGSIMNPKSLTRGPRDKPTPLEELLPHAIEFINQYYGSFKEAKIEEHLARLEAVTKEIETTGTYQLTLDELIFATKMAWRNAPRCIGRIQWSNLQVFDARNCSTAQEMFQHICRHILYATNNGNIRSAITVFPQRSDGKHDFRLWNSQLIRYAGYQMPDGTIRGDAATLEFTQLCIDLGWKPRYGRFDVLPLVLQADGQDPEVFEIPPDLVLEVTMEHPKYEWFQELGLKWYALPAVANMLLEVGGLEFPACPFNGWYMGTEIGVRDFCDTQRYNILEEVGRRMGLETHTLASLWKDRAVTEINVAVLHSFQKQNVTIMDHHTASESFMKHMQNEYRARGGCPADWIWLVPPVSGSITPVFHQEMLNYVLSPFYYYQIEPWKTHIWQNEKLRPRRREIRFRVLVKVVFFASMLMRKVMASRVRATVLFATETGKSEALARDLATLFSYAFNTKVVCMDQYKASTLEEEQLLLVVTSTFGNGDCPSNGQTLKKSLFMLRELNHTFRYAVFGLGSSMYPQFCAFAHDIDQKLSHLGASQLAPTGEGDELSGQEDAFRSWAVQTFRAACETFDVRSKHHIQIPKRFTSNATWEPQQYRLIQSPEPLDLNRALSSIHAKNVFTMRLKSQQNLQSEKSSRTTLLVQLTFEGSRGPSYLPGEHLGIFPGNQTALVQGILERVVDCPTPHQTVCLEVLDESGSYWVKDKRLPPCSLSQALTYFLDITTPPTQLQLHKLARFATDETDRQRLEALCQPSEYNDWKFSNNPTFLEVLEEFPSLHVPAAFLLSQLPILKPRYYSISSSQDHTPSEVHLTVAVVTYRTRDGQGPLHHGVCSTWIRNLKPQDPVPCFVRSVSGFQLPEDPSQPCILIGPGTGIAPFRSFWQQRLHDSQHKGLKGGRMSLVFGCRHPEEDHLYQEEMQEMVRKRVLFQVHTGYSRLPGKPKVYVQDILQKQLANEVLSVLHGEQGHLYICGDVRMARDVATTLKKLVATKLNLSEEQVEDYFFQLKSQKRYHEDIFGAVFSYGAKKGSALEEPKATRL

[5] = biological target: 5-hydroxytryptamine receptor 1B (Rattus norvegicus, UniProt P28564); assay type: cell membranes, Wistar, Cerebral cortex, Membrane; conditions: for Ki: read-out: Ki
Cytochrome P450 2C9 = Cytochrome P450 2C9 (Homo sapiens, UniProt P11712); conditions: bti-tn-5b1-4; further: in other assays of this panel Not Active means under 50% inhibition at 10 µM
[6] = DRUGMATRIX: Sigma2 radioligand binding (ligand: [3H] Ifenprodil); assay type: cell membranes, Rattus norvegicus, Wistar, Brain, Membrane; conditions: Not Active = under 50% inhibition at 10 µM
[7] = DRUGMATRIX: Interleukin IL-1 radioligand binding (ligand: [125I] interleukin 1beta); assay type: cell membranes, Membrane; conditions: nih3t3; Not Active = under 50% inhibition at 10 µM
[8] = DRUGMATRIX: Phorbol Ester radioligand binding (ligand: [3H] PDBu); assay type: cell membranes, Mus musculus, ICR, Brain, Membrane; conditions: Not Active = under 50% inhibition at 10 µM

Sequence of Vascular endothelial growth factor receptor 1 (P17948 whole entry): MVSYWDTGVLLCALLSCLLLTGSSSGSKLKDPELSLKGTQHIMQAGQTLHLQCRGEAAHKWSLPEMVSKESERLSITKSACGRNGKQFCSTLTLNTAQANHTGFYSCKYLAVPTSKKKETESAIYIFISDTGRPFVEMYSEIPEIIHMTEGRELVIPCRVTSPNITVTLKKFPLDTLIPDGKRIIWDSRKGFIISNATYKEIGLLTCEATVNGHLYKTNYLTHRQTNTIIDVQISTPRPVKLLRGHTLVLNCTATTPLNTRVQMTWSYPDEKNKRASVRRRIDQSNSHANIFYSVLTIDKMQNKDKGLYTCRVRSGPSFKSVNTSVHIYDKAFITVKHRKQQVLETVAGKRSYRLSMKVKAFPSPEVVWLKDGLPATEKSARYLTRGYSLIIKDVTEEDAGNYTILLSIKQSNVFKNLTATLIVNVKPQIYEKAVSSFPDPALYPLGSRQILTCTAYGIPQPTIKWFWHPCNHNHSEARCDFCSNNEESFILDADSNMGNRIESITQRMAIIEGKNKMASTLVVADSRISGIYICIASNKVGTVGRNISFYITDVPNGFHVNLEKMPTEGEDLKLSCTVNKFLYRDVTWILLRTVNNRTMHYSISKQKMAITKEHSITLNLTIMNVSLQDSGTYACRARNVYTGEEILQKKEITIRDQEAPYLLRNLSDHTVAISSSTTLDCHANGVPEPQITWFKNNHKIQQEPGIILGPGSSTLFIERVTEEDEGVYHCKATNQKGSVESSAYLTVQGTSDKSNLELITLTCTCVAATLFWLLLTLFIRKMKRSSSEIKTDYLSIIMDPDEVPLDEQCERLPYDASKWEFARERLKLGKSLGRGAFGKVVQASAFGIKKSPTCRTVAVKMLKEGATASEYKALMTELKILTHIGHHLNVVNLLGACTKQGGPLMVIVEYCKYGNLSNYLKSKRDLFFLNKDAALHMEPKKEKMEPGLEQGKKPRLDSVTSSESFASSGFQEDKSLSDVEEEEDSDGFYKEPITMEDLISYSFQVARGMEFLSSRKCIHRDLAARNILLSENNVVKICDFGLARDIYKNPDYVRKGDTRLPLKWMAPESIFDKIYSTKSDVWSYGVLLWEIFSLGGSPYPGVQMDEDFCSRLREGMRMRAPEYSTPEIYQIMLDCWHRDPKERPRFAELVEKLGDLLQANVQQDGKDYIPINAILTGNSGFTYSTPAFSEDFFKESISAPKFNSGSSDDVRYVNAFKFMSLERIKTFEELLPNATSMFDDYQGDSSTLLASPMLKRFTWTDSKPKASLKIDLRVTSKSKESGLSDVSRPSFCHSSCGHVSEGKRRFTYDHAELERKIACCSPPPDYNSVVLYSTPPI
Sequence of 5-hydroxytryptamine receptor 1B (P28564 whole entry): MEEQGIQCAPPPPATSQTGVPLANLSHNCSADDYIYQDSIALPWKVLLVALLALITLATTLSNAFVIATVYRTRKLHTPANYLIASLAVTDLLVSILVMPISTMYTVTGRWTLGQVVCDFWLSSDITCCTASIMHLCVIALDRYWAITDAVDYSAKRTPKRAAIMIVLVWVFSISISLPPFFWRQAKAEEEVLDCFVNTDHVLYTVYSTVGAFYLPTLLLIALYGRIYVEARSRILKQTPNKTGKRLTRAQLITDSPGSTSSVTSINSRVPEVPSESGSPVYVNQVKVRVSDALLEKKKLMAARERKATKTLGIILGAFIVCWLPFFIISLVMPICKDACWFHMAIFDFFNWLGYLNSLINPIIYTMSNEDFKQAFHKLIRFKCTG
Sequence of 5-hydroxytryptamine receptor 4 (O70528 whole entry): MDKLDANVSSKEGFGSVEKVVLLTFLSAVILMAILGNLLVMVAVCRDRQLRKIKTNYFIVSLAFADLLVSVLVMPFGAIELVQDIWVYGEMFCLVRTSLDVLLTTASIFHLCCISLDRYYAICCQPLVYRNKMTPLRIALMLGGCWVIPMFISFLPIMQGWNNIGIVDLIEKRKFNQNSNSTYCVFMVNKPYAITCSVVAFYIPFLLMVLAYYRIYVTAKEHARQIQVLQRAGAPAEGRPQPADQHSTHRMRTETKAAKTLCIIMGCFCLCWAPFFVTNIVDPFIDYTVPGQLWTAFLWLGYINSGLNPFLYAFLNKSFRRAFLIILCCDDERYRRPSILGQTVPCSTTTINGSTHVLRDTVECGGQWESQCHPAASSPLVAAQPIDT
Sequence of Cytochrome P450 2C9 (P11712 whole entry): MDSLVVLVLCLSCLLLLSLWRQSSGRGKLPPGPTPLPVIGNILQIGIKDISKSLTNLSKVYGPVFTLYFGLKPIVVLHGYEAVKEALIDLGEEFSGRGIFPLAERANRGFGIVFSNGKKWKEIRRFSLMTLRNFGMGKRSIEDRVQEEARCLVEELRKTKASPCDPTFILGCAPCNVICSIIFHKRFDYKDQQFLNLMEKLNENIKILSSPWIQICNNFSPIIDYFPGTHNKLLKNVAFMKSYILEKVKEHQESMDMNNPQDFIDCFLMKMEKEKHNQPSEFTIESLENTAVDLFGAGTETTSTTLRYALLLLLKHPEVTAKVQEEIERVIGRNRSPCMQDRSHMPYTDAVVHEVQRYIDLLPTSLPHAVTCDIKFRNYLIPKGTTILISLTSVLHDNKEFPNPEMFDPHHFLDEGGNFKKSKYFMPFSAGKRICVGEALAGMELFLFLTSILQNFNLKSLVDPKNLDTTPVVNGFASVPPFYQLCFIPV

Row | Structure (SMILES) | IC50 [1] | IC50 [2] | IC50 [3] | IC50 [4] | IC50 [5] | IC50 (Cytochrome P450 2C9) | Ki (Cytochrome P450 2C9) | IC50 [6] | Ki [6] | IC50 [7] | Ki [7] | IC50 [8] | Ki [8] | IC50 ([5]; read-out: IC50) [nM] | Ki [5] [nM]
1 | CC(=O)Nc1nnc(S(N)(=O)=O)s1 [ACETAZOLAMIDE] | Not Active | Not Active | Not Active | Not Active | Not Active | Not Active | Not Active | – | – | – | – | – | – | – | –
2 | CO[C@H]1C[C@@H]2CC[C@@H](C)[C@@](O)(O2)C(=O)C(=O)N2CCCC[C@H]2C(=O)O[C@H]([C@H](C)C[C@@H]2CC[C@@H](O)[C@H](OC)C2)CC(=O)[C@H](C)/C=C(\C)[C@@H](O)[C@@H](OC)C(=O)[C@H](C)C[C@H](C)/C=C/C=C/C=C/1C [SIROLIMUS] | Not Active | Not Active | Not Active | Not Active | Not Active | – | – | Not Active | Not Active | Not Active | Not Active | Not Active | Not Active | – | –
3 | OCCN1CCN(CCCN2c3ccccc3Sc3ccc(C(F)(F)F)cc32)CC1 [FLUPHENAZINE] | Not Active | Not Active | Not Active | Not Active | – | – | – | – | – | – | – | – | – | 1910 | 869
4 | COc1cc(N)nc2[nH]c(-c3ccc(F)cc3)c(-c3ccncc3)c12 | Not Active | Not Active | Not Active | Not Active | Not Active | – | – | Not Active | Not Active | Not Active | Not Active | Not Active | Not Active | – | –
5 | O=c1n(CCCN2CCN(c3cccc(Cl)c3)CC2)nc2ccccn12 [TRAZODONE] | Not Active | Not Active | Not Active | Not Active | – | Not Active | Not Active | – | – | – | – | – | – | 1360 | 830
6 | CNS(=O)(=O)Cc1ccc2[nH]cc(CCN(C)C)c2c1 | Not Active | Not Active | Not Active | Not Active | – | Not Active | Not Active | Not Active | Not Active | Not Active | Not Active | Not Active | Not Active | – | –
7 | CCS(=O)(=O)CCn1c([N+](=O)[O-])cnc1C [TINIDAZOLE] | Not Active | Not Active | Not Active | Not Active | Not Active | – | – | Not Active | Not Active | Not Active | Not Active | Not Active | Not Active | – | –
8 | COc1cc(C(=O)NS(=O)(=O)c2ccccc2C)ccc1Cc1cn(C)c2ccc(NC(=O)OC3CCCC3)cc12 [ZAFIRLUKAST] | Not Active | Not Active | Not Active | Not Active | Not Active | – | – | Not Active | Not Active | Not Active | Not Active | Not Active | Not Active | – | –
9 | C[C@]12CC[C@H]3[C@@H](CCC4=CC(=O)CC[C@@]43C)[C@@H]1CC[C@@H]2O [TESTOSTERONE] | Not Active | Not Active | Not Active | Not Active | Not Active | – | – | Not Active | Not Active | Not Active | Not Active | Not Active | Not Active | – | –
10 | CN1C2CCCC1CC(NC(=O)c1nn(C)c3ccccc13)C2 (stereo not given) [GRANISETRON] | Not Active | Not Active | Not Active | Not Active | Not Active | Not Active | Not Active | – | – | – | – | – | – | – | –
